# Laboratory results published in patent US9018224B2, “Substituted cyclopropyl compounds useful as GPR119 agonists” (Merck Sharp & Dohme Corp., priority 2011, dated 2015).
# Target: T1, human GPR119 (Homo sapiens, UniProt Q8TDV5)
# T1 sequence (Q8TDV5 1-308 limits assumed): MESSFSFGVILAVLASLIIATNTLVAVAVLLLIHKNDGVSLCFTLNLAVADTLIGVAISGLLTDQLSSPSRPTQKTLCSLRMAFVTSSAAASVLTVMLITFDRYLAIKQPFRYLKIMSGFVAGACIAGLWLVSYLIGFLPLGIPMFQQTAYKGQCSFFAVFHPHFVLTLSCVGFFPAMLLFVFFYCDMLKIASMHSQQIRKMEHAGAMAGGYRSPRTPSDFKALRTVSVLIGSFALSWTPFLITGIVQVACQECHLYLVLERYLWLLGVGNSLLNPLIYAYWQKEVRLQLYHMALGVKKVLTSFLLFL
# Test: Measurement of GPR119 signaling by cAMP (LANCE cAMP kit or HTRF) in HEK293 cells transfected with human GPR119
# Format: cell-based
# Settings: agonist cAMP response in HEK293 cells stably transfected with human GPR119; patent does not say which of the two cAMP formats (LANCE or HTRF)
# Method: Measurement of GPR119 Signaling Using LANCE 384-Well cAMP Kit
# The adenylate cyclase assay was constructed following the LANCE™ cAMP Kit (Perkin Elmer, AD0264) instructions. […] The reaction was stopped by incubating with the supplied detection buffer containing the europium chelate of the Eu-SA/Biotin-cAMP tracer for 3 hours. The assay was performed in duplicate in a 384 well plate for duplicate plates. […] Basal activity was determined using a DMSO control and maximum response was defined as cAMP stimulation produced by an internal agonist control. Standard cAMP concentrations were assayed concurrently for conversion of fluorescence signal to cAMP level. The data was analyzed using 4-parameter curve fit in Microsoft Excel
# Measurement of GPR119 Signaling Using a Cyclic AMP (cAMP) Homogenous Time Resolved Fluorescence (HTRF) Assay
# Chinese hamster ovary (CHO) cell lines stably transfected with the permissive guanine nucleotide binding protein alpha 15 (Gα15) and murine GPR119 were maintained in DMEM media containing FBS, penicillin-streptomycin, puromycin, and G418 (geneticin). […] Agonist activation of the GPR119 receptor was measured in receptor transfected cells described above, treated with compounds of this invention, using a commercial homogenous time resolved fluorescence (HTRF) kit for measurement of cAMP (CisBio, Bedford, Mass.). The assay was performed in 96-well half-volume plates (murine) or 384-well plates (human) following the manufacturers instructions. Briefly, suspended cells were incubated with a dose titration of test compound at room temperature for 60 min, lysed, and incubated with HTRF reagents for an additional 60 min. The plate was read using an Envision multilabel reader (Perkin Elmer) adjusted to read time resolved fluorescence and the cAMP concentrations were extrapolated from a cAMP calibration curve. […] The concentration of test compound required to stimulate a half-maximal response (EC50), and efficacy as compared to an internal agonist control, was determined from a sigmoidal 4-parameter curve fit of the resulting plot of normalized activity versus compound concentration.
row,SMILES,EC50
1,O=C(Cc1ccc(OCC[C@@H]2C[C@@H]2C2CCN(c3ncc(Cl)cn3)CC2)cc1F)N1CCc2oc(C3CC3)nc2C1 [Example 143],4.7 nM
2,O=C(Cc1ccc(OCC[C@@H]2C[C@@H]2C2CCN(c3ncc(Cl)cn3)CC2)cc1F)N1CCc2sccc2C1 [Example 185],2.2 nM
3,COCc1cnc(N2CCC([C@H]3C[C@H]3CCOc3ccc(CC(=O)N4CC(OC)C4)cc3)CC2)nc1 [Example 8],2.9 nM
4,CN(C(=O)Cc1ccc(OCC[C@@H]2C[C@@H]2C2CCN(c3ncc(Cl)cn3)CC2)cc1F)C1CCCCC1 [Example 164],1.6 nM
5,O=C(Cc1ccc(OCC[C@@H]2C[C@@H]2C2CCN(c3ncc(Cl)cn3)CC2)cc1F)N1CCc2cncnc2C1 [Example 129],0.29 nM
6,"CCc1cnc(N2CCC([C@H]3C[C@H]3CCOc3ccc(CC(=O)N4CCC4)c(F)c3)CC2)nc1 [Example 207, 1-(azetidin-1-yl)-2-[4-(2-{(1S,2R)-2-[1-(5-ethylpyrimidin-2-yl)piperidin-4-yl]cyclopropyl}ethoxy)-2-fluorophenyl]ethanone]",0.4 nM
7,CC1c2nc(C(F)(F)F)cn2CCN1C(=O)Cc1ccc(OCC[C@@H]2C[C@@H]2C2CCN(c3ncc(Cl)cn3)CC2)cc1F (stereo partly drawn) [Example 188],0.55 nM
8,COCc1cnc(N2CCC([C@H]3C[C@H]3CCOc3ccc(CC(=O)N4CCOCC4)cc3)CC2)nc1 [Example 10],8.3 nM
9,Cc1ccc2n1CCN(C(=O)Cc1ccc(OCC[C@@H]3C[C@@H]3C3CCN(c4ncc(Cl)cn4)CC3)cc1F)C2C (stereo partly drawn) [Example 191],3.4 nM

# Continued, values first:
row,EC50,SMILES
1,2.1 nM,"COc1cnc(N2CCC([C@H]3C[C@H]3CCOc3ccc(CC(=O)N4CC(O)C4)c(F)c3)CC2)nc1 [Example 33, 2-[2-fluoro-4-(2-{(1S,2R)-2-[1-(5-methoxypyrimidin-2-yl)piperidin-4-yl]cyclopropyl}ethoxy)phenyl]-1-(3-hydroxyazetidin-1-yl)ethanone]"
2,8.9 nM,COC(=O)C1CN1C(=O)Cc1ccc(OCC[C@@H]2C[C@@H]2C2CCN(c3ncc(Cl)cn3)CC2)cc1F (stereo partly drawn) [Example 107]
3,1.4 nM,O=C(Cc1ccc(OCC[C@@H]2C[C@@H]2C2CCN(c3ncc(Cl)cn3)CC2)cc1F)NC1CC1 [Example 62]
4,0.59 nM,"COc1cnc(N2CCC([C@H]3C[C@H]3CCOc3cc(F)c(CC(=O)N4CC(O)C4)c(F)c3)CC2)nc1 [Example 210, 2-[2,6-difluoro-4-(2-{(1S,2R)-2-[1-(5-methoxypyrimidin-2-yl)piperidin-4-yl]cyclopropyl}ethoxy)phenyl]-1-(3-hydroxyazetidin-1-yl)ethanone]"
5,0.94 nM,"COCc1ccc(N2CCC([C@H]3C[C@H]3CCOc3ccc(CC(=O)N4CCC4)c(F)c3)CC2)nc1 [Example 237, 1-(azetidin-1-yl)-2-(2-fluoro-4-{2-[(1S,2R)-2-{1-[5-(methoxymethyl)pyridin-2-yl]piperidin-4-yl}cyclopropyl]ethoxy}phenyl)ethanone]"
6,2.8 nM,CN(CC1CCCCO1)C(=O)Cc1ccc(OCC[C@@H]2C[C@@H]2C2CCN(c3ncc(Cl)cn3)CC2)cc1F (stereo partly drawn) [Example 156]
7,0.7 nM,COC(=O)Cc1ccc(OCC[C@@H]2C[C@@H]2C2CCN(c3ncc(Cl)cn3)CC2)cc1F [Example 61]
8,7.2 nM,"COCc1cnc(N2CCC([C@H]3CC3CCOc3cc(F)c(CCO)c(F)c3)CC2)nc1 (stereo in doubt) [Example 240, 2-{2,6-Difluoro-4-[2-((1R,2R)-2-{1-[5-(methoxymethyl)pyrimidin-2-yl]piperidin-4-yl}cyclopropyl)ethoxy]phenyl}ethanol]"
9,0.6 nM,O=C(Cc1ccc(OCC[C@@H]2C[C@@H]2C2CCN(c3ncc(Cl)cn3)CC2)cc1F)N1CCc2scnc2C1 [Example 172]
